Read-outs that look alike come from different tables or passages of the source.
Assays:
EO771 cells = assay type: cell-based, Murine; details: for competition with rotenone on OCR: PPV given before rotenone; for inhibition of oxygen consumption (OCR), effective concentration (words): real time Seahorse XF dose response
Method: Error bars represent standard deviation.
FIGS. 2A-2D are OCR measurements and cell viability assessments. FIG. 2A-2B are representative of OCR measurement in competition assay between PPV and complex I inhibitors piericidin A (FIG. 2A) and capsaicin (FIG. 2B). Values represent the means+−SD. […] Bar charts represent mean of viable cells in duplicates+−standard deviation.
(§1) Seahorse analysis of the OCR. Oxygen consumption rate (OCR) was measured using Seahorse XF96 Flux Analyzer (Agilent Technologies). The cells were seeded to attach overnight, wells were washed with pre-warmed XF Calibrant (Agilent Technologies) and the replaced with unbuffered Assay Medium (pH 7.4, 5 mM glucose, 1 mM L-glutamine). The plates were incubated at 37° C. in a CO2-free incubator for 2 hours prior to assay. For succinate rescue assay, cells were permeabilized using XF Plasma Membrane Permeabilizer Reagent (XF PMP, Agilent Technologies) according to the manufacturer's instructions. The OCR rate was measured in 1× Mitochondrial Assay Solution (MAS) (70 mM sucrose, 220 mM mannitol, 10 mM KH2PO4, 5 mM MgCl2, 2 mM Hepes, 0.6% (w/v) fatty acid-free BSA and 1 mM EGTA; pH 7.4). After baseline oxygenation was established, 1 μM rotenone or 10 μM PPV was injected at time A, followed by 5 mM succinate at time B. Error bars represent standard deviation. For the washout experiment, EO771 cells were seeded overnight, then treated with 10 μM PPV or 1 μM rotenone 3 hours prior to OCR measurement. Media was replaced 1 and 2 hours before measurement and OCR reported.

[1] = tested on: model tumors grown in mice; experiment: Tumor growth delay with radiation, model tumors pooled; assay type: in vivo; details: papaverine 30-60 minutes prior to radiation
Method: Tumor Growth kinetics. 2×10^6 EO771 or 5×10^6 A549 cells were injected s.c. into the flanks of 6-week old female immunocompetent C57/B6 (EO771) or immunocompromised nu/nu (A549) mice. Caliper measurements of opposing diameter were used to calculate the tumor volumes. Upon reaching […], the tumors were visualized by cone beam CT and treatment plans calculated using SARRP software. X-rays were delivered with a single beam delivering 5 Gy using the Small Animal Research Radiation Platform (SARRP, Xstrahl). Tumor volumes were measured until the post treatment volume increased 3-fold. Error bars represent standard deviation.
Both models of transplanted tumors that were used for the oxygenation experiments of papaverine's effect on radiation response in vivo were investigated. The murine breast cancer line EO771 that is syngeneic with the BL6 strain of mice was used and transplanted it orthotopically into the mammary fat pad of immune-competent mice. Also used was the human A549 lung adenocarcinoma line that was transplanted into the flank of immune-deficient mice. The breast cancers grew to approximately 150 mm^3 and were then randomized to receive either no treatment, a single dose of either 5 Gy, or papaverine at 2 mg/kg followed 30-40 minutes later by 5 Gy. […]

[2] = tested on: oxygen consumption (mitochondrial function); experiment: Seahorse XF analysis of oxygen consumption in vitro, cell line not stated; assay type: cell-based
Method: as §1

A549 cells = experiment: Trypan blue cell viability of A549 cells in normoxia and hypoxia; assay type: cell-based, Human; details: 100 μM papaverine, 72 h
Method: FIGS. 2A-2D are OCR measurements and cell viability assessments. FIG. 2A-2B are representative of OCR measurement in competition assay between PPV and complex I inhibitors piericidin A (FIG. 2A) and capsaicin (FIG. 2B). Values represent the means+−SD. FIGS. 2C-2D show trypan blue cell viability assessment (of n=3) of A549 cells treated with 100 μM papaverine or 1 μM rotenone in normoxia (FIG. 2C) and hypoxia (FIG. 2D) (T=72 h). Bar charts represent mean of viable cells in duplicates+−standard deviation.
Experimental: Cell lines. All cell lines were purchased from the American Type Culture Collection (ATCC) and grown DMEM (Corning) supplemented with 10% FBS (Seradigm) and 1% Penicillin/Streptomycin (Fisher Bioreagents) at 37° C. in 5% CO2. Cells were treated with inhibitors papaverine hydrochloride (Sigma-Aldrich), rotenone (Sigma-Aldrich), piericidin A (Santa Cruz), capsaicin (Sigma-Aldrich), antimycin A (Sigma-Aldrich) and succinic acid disodium salt (Sigma-Aldrich). Cell viability was assessed by trypan blue exclusion.

PDE10A = target: T1, PDE10A (Homo sapiens, UniProt Q9Y233); experiment: PDE10A enzymatic assay (PDE10A activity assay kit, BPS Bioscience); assay type: biochemical
T1 construct: purchased BPS Bioscience
Method: FIGS. 7A-7D show OCR and cellular toxicity data. […] Bars represent mean OCR and PDE10 inhibitory activities from at least 5 (OCR) or 3 (PDE) replicates. All experiments were repeated at least twice. […] Values are mean+−SEM. […]
The structure activity relationship of PPV relative to two assays was assessed: inhibition of cellular OCR by Seahorse, and inhibition of PDE10A by purified enzyme activity in multiwell plate (PDE10A activity assay kit, BPS Bioscience). […] These lead compounds were synthesized from commercial precursors and purified on silica gel column.

mitochondrial complex 1 = experiment: Seahorse OCR inhibition of PPV derivatives, normalized to PPV; assay type: cell-based
Method: FIGS. 7A-7D show OCR and cellular toxicity data. […]. Bars represent mean OCR and PDE10 inhibitory activities from at least 5 (OCR) or 3 (PDE) replicates. All experiments were repeated at least twice. […] Values are mean+−SEM.
as §1
Because PPV's effect on mitochondrial function is independent of cAMP levels it was reasoned that there are two activities in PPV, one inhibiting complex 1 and one inhibiting PDE10A that may reside in different parts of the molecule. The structure activity relationship of PPV relative to two assays was assessed: inhibition of cellular OCR by Seahorse, and inhibition of PDE10A by purified enzyme activity in multiwell plate (PDE10A activity assay kit, BPS Bioscience). Because PPV can compete with rotenone as complex 1 inhibitors, it was reasoned that they may be binding the same site and therefore the structures would be similar relative to the mitochondrial binding target. […] Because the top was a planar structure similar to that of rotenone, and they compete with each other for the same binding pocket on complex 1 (FIG. 10) the lower portion of the molecule and how it may resemble rotenone were investigated in more detail. It was established that flexible linkage was preferred for mitochondrial activity and bulky adducts to the lower benzene ring may block it (FIG. 7C). […] These lead compounds were synthesized from commercial precursors and purified on silica gel column. Structures were confirmed by ^1H NMR and found to be >95% pure by HPLC.

T1 sequence (Q9Y233 267-1055): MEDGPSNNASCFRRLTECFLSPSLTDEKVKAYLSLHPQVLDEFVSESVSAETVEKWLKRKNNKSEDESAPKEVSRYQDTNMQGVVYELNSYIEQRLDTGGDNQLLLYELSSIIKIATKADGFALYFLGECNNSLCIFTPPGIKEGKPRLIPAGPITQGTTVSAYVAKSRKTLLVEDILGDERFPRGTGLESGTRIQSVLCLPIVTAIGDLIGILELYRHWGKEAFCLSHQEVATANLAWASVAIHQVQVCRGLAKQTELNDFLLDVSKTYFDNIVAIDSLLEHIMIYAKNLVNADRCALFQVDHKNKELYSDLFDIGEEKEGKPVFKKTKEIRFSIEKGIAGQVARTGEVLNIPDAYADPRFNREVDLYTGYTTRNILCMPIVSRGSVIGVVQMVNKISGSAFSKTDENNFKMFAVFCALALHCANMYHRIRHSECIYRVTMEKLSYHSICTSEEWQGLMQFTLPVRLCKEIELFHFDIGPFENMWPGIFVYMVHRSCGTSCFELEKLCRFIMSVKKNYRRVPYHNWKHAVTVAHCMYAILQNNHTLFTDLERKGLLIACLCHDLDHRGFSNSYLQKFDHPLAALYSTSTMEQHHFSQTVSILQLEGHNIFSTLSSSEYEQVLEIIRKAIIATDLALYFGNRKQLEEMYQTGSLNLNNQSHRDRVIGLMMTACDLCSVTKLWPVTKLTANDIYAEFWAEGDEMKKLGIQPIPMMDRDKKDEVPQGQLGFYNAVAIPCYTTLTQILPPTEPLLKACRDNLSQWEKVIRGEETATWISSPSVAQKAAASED

Row | Structure (SMILES) | efficiency at rotenone binding pocket relative to rotenone (EO771 cells) | competition with rotenone on OCR (EO771 cells) | competition with rotenone on OCR (EO771 cells; listed as papaverine) | interaction with complex 1 inhibitors piericidin A or capsaicin (EO771 cells; competition assay) | inhibition of oxygen consumption (OCR), effective concentration (words) (EO771 cells) | inhibition of oxygen consumption (OCR), effective concentration (words) (EO771 cells; listed as Papaverine) | increase of relative growth delay of a single dose of radiation [1] | increase of relative growth delay of a single dose of radiation ([1]; listed as papaverine) | inhibition of oxygen consumption / mitochondrial function in vitro [2] | cellular toxicity in normoxia or hypoxia in vitro (A549 cells) | IC20 (PDE10A; PDE10A2 enzymatic assay, n=3 replicates, read-out: PDE IC20 (PDE10A IC20)) [µM] | Inhibitory activity PDE10A % of PPV (PDE10A; PDE10A inhibition at 1 μM, normalized to PPV) | PDE10 activity compared to PPV (PDE10A; compared to PPV) [%] | activity in cellular OCR assay (mitochondrial complex 1; Seahorse) | Inhibitory activity OCR % of PPV (mitochondrial complex 1; Seahorse, OCR inhibition at 10 μM concentration, normalized to PPV) | complex 1 activity compared to PPV (mitochondrial complex 1; compared to PPV) [%]
1 | COc1ccc(Cc2nccc3cc(OC)c(OC)cc23)cc1OC [PPV, papaverine] | approximately 100 × lower efficiency | block the activity of the classical complex 1 inhibitor rotenone | blocked rotenone's inhibitory activity | no interaction | effective at low micromolar concentrations | rapidly inhibited oxygen consumption at low micromolar concentrations | 2-4 fold | 1.9-3.9 fold | effective at inhibiting oxygen consumption | no cellular toxicity | – | – | – | – | – | –
2 | COc1cc2ccnc(Cc3cccc4ccccc34)c2cc1OC [SMV-32] | – | – | – | – | – | – | – | – | – | – | 12 | 38.66 % of PPV | 40 | approaching that of rotenone | 159.3 % of PPV | 160

Source: patent US20210163453A1, “DERIVATIVES OF PAPAVERINE THAT ARE EFFECTIVE HYPOXIC TUMOR RADIOSENSITIZERS” (Ohio State Innovation Foundation, priority 2018, published 2021)
